In publication PMC6219668 (Oncotarget, 2018):

Test system: panel of nearly 500 cancer cell lines
Test: Cancer Cell Line Encyclopedia profiling, 3-day CellTiter-Glo
Assay type: cell-based
Set-up: Amax: unit not given here

CN(C)C(=O)c1cc2cnc(Nc3ccc(N4CCNCC4)cn3)nc2n1C1CCCC1 [Ribociclib, 7-cyclopentyl-2-(5-piperazin-1-yl-pyridin-2-ylamino)-7H-pyrrolo[2,3-d]pyrimidine-6-carboxylic acid dimethylamide]
4.08 µM: EC50 (Homo sapiens, CAL-12T) | IC50 (Homo sapiens, CAL-12T)
2.2 µM: EC50 (HEY A8)
0.534 µM: IC50 (Homo sapiens, HGC-27)
0.188 µM: EC50 (Homo sapiens, HGC-27)
0.0389 µM: EC50 (Homo sapiens, A204)
0.112 µM: EC50 (Homo sapiens, DMS-114)
0.195 µM: EC50 (CMK-86)
0.801 µM: EC50 (Homo sapiens, A549)
0.00254 µM: EC50 (COLO 699)
0.867 µM: EC50 (Homo sapiens, ESS-1)
0.99 µM: EC50 (Homo sapiens, 22Rv1)
0.122 µM: EC50 (Homo sapiens, DOHH-2)
1.87 µM: EC50 (Homo sapiens, 8505C)
0.126 µM: EC50 (Homo sapiens, CHP-212)
0.513 µM: IC50 (CMK-86)
0.506 µM: EC50 (Homo sapiens, HDQ-P1)
> 8 µM: IC50 (COLO 699) | EC50 (COV318) | IC50 (COV318) | EC50 (COV504) | IC50 (COV504) | IC50 (Fu97) | EC50 (GLC82) | IC50 (GLC82) | EC50 (HCC15) | IC50 (HCC15) | EC50 (HEC-6) | IC50 (HEC-6) | EC50 (HEC-251) | IC50 (HEC-251) | IC50 (HEY A8) | EC50 (Homo sapiens, 8-MG-BA) | IC50 (Homo sapiens, 8-MG-BA) | EC50 (Homo sapiens, 639-V) | IC50 (Homo sapiens, 639-V) | EC50 (Homo sapiens, 786-0) | IC50 (Homo sapiens, 786-0) | EC50 (Homo sapiens, 8305C) | IC50 (Homo sapiens, 8305C) | IC50 (Homo sapiens, 8505C) | EC50 (Homo sapiens, A 172) | IC50 (Homo sapiens, A 172) | IC50 (Homo sapiens, A204) | EC50 (Homo sapiens, A253) | IC50 (Homo sapiens, A253) | IC50 (Homo sapiens, A549) | IC50 (Homo sapiens, A673) | EC50 (Homo sapiens, A2058) | IC50 (Homo sapiens, A2058) | EC50 (Homo sapiens, A-375) | EC50 (Homo sapiens, ACHN) | IC50 (Homo sapiens, ACHN) | EC50 (Homo sapiens, AMO1) | IC50 (Homo sapiens, AMO1) | EC50 (Homo sapiens, AN3-CA) | IC50 (Homo sapiens, AN3-CA) | EC50 (Homo sapiens, ASPC1) | IC50 (Homo sapiens, ASPC1) | EC50 (Homo sapiens, AU565) | IC50 (Homo sapiens, AU565) | EC50 (Homo sapiens, AZ-521) | IC50 (Homo sapiens, AZ-521) | EC50 (Homo sapiens, BCPAP) | IC50 (Homo sapiens, BCPAP) | IC50 (Homo sapiens, BFTC-909) | EC50 (Homo sapiens, BGC-823) | IC50 (Homo sapiens, BGC-823) | EC50 (Homo sapiens, BL-41) | IC50 (Homo sapiens, BL-41) | EC50 (Homo sapiens, BT-474) | IC50 (Homo sapiens, BT-474) | EC50 (Homo sapiens, BT-549) | IC50 (Homo sapiens, BT-549) | EC50 (Homo sapiens, BXPC-3) | IC50 (Homo sapiens, BXPC-3) | EC50 (Homo sapiens, C2BBe1) | IC50 (Homo sapiens, C2BBe1) | EC50 (Homo sapiens, CAKI-2) | IC50 (Homo sapiens, CAKI-2) | IC50 (Homo sapiens, CAL-27) | EC50 (Homo sapiens, CAL-85-1) | IC50 (Homo sapiens, CAL-85-1) | EC50 (Homo sapiens, CAMA-1) | IC50 (Homo sapiens, CAMA-1) | EC50 (Homo sapiens, CHL-1) | IC50 (Homo sapiens, CHL-1) | EC50 (Homo sapiens, COLO 201) | IC50 (Homo sapiens, COLO 201) | EC50 (Homo sapiens, COLO 320) | IC50 (Homo sapiens, COLO 320) | IC50 (Homo sapiens, COLO-678) | IC50 (Homo sapiens, COLO-679) | IC50 (Homo sapiens, COLO-741) | EC50 (Homo sapiens, COR-L23) | IC50 (Homo sapiens, COR-L23) | EC50 (Homo sapiens, COR-L105) | IC50 (Homo sapiens, COR-L105) | EC50 (Homo sapiens, Calu-1) | IC50 (Homo sapiens, Calu-1) | EC50 (Homo sapiens, Calu-3) | IC50 (Homo sapiens, Calu-3) | IC50 (Homo sapiens, Calu-6) | EC50 (Homo sapiens, Capan-2) | IC50 (Homo sapiens, Capan-2) | IC50 (Homo sapiens, DBTRG-05MG) | IC50 (Homo sapiens, DMS-114) | IC50 (Homo sapiens, DOHH-2) | EC50 (Homo sapiens, DOV13) | IC50 (Homo sapiens, DOV13) | EC50 (Homo sapiens, DU-145) | IC50 (Homo sapiens, DU-145) | IC50 (Homo sapiens, DV-90) | EC50 (Homo sapiens, Daoy) | IC50 (Homo sapiens, Daoy) | EC50 (Homo sapiens, Detroit 562) | IC50 (Homo sapiens, Detroit 562) | IC50 (Homo sapiens, EBC-1) | EC50 (Homo sapiens, EFE-184) | IC50 (Homo sapiens, EFE-184) | IC50 (Homo sapiens, EFM-19) | EC50 (Homo sapiens, EFO-21) | IC50 (Homo sapiens, EFO-21) | EC50 (Homo sapiens, EFO-27) | IC50 (Homo sapiens, EFO-27) | IC50 (Homo sapiens, ESS-1) | EC50 (Homo sapiens, FaDu) | IC50 (Homo sapiens, FaDu) | EC50 (Homo sapiens, G-361) | IC50 (Homo sapiens, G-361) | IC50 (Homo sapiens, G-401) | EC50 (Homo sapiens, GAMG) | IC50 (Homo sapiens, GAMG) | EC50 (Homo sapiens, GCIY) | IC50 (Homo sapiens, GCIY) | EC50 (Homo sapiens, GMS-10) | IC50 (Homo sapiens, GMS-10) | EC50 (Homo sapiens, Granta-519) | IC50 (Homo sapiens, Granta-519) | IC50 (Homo sapiens, HCC44) | EC50 (Homo sapiens, HCC70) | IC50 (Homo sapiens, HCC70) | EC50 (Homo sapiens, HCC78) | IC50 (Homo sapiens, HCC78) | EC50 (Homo sapiens, HCC827) | IC50 (Homo sapiens, HCC827) | EC50 (Homo sapiens, HCC1187) | IC50 (Homo sapiens, HCC1187) | EC50 (Homo sapiens, HCC1395) | IC50 (Homo sapiens, HCC1395) | EC50 (Homo sapiens, HCC1569) | IC50 (Homo sapiens, HCC1569) | EC50 (Homo sapiens, HCC1806) | IC50 (Homo sapiens, HCC1806) | EC50 (Homo sapiens, HCC1954) | IC50 (Homo sapiens, HCC1954) | EC50 (Homo sapiens, HCC2935) | IC50 (Homo sapiens, HCC2935) | EC50 (Homo sapiens, HCC4006) | IC50 (Homo sapiens, HCC4006) | IC50 (Homo sapiens, HCT-15) | EC50 (Homo sapiens, HCT-116) | IC50 (Homo sapiens, HCT-116) | IC50 (Homo sapiens, HDQ-P1) | EC50 (Homo sapiens, HEC-1-A) | IC50 (Homo sapiens, HEC-1-A) | IC50 (Homo sapiens, HEC-1B) | EC50 (Homo sapiens, HEL 92.1.7) | IC50 (Homo sapiens, HEL 92.1.7) | EC50 (Homo sapiens, HMCB) | IC50 (Homo sapiens, HMCB)
-56.5199: Amax (769p (kidney))
4.43 µM: IC50 (Homo sapiens, 769-P)
0.0275 µM: EC50 (Homo sapiens, HEC-1B)
1.84 µM: IC50 (Homo sapiens, CHP-212)
1.59 µM: EC50 (Homo sapiens, HCC44)
0.44 µM: EC50 (Homo sapiens, EBC-1)
8 µM: IC50 (Homo sapiens, A-375)
-43.2823: Amax (8305c (thyroid))
0.00888 µM: EC50 (Homo sapiens, G-401)
2.05 µM: IC50 (Homo sapiens, G-402)
1.24 µM: EC50 (Homo sapiens, COLO 205)
0.475 µM: EC50 (Homo sapiens, COLO-678)
1.48 µM: EC50 (Homo sapiens, Calu-6)
0.467 µM: EC50 (Homo sapiens, G-402)
3.38 µM: EC50 (Homo sapiens, BFTC-909)
2.67 µM: EC50 (Homo sapiens, HPAC) | IC50 (Homo sapiens, HPAC)
0.201 µM: EC50 (Homo sapiens, A2780)
3.46 µM: IC50 (Homo sapiens, COLO 205)
-10.3812: Amax (8505c (thyroid))
0.568 µM: EC50 (Homo sapiens, A673)
2.199: Amax (786o (kidney))
4.04 µM: IC50 (Homo sapiens, A2780)
0.0482 µM: EC50 (Homo sapiens, EFM-19)
0.347 µM: EC50 (Homo sapiens, DBTRG-05MG)
4.53 µM: EC50 (Homo sapiens, HCT-15)
0.483 µM: EC50 (Fu97)
0.325: Amax (8mgba (central_nervous_system))
0.00743 µM: EC50 (Homo sapiens, DV-90)
2.13 µM: EC50 (Homo sapiens, COLO-741)
3.81 µM: IC50 (Homo sapiens, 22Rv1)
1.14 µM: EC50 (Homo sapiens, 769-P)
1.03 µM: EC50 (Homo sapiens, COLO-679)
3.83 µM: EC50 (Homo sapiens, CAL-27)
